From publication PMC3445516 (PLoS ONE, 2012)
Where two headings read alike, the source gives them in different places. Values belong to the compound of their own block, whether it stands above or below them.

Key:
Assay in all cases: Ambit kinase profiling, competition binding
LCK = target: T1, LCK (Homo sapiens, UniProt P06239)
T1 construct: purchased Ambit Biosciences (KINOMEscan)
Method: (§1) Also included in the kinase profile are four isoforms of PKC (δ, ε, η, θ) and eight isoforms of CAMKs (CAMKIα, δ, γ; CAMKIIα, β, δ, γ; CAMK4).
(§2) The global kinase profiling experiment was performed by Ambit Biosciences.

p38-alpha = target: T2, p38-alpha (Homo sapiens, UniProt Q16539); conditions: for % Competition: 10 µM
T2 construct: purchased Ambit Biosciences (KINOMEscan)
Method: as §1, §2

TGFBR2 = target: T3, TGFBR2 (Homo sapiens, UniProt P37173)
T3 construct: purchased Ambit Biosciences (KINOMEscan)
Method: as §1, §2

EGFR(G719S) = target: T4, EGFR(G719S) (Homo sapiens, UniProt P00533, G719S); conditions: for % Competition: 10 µM
T4 construct: purchased Ambit Biosciences (KINOMEscan)
Method: as §1, §2

CSNK1E = target: T5, CSNK1E (Homo sapiens, UniProt P49674)
T5 construct: purchased Ambit Biosciences (KINOMEscan)
Method: as §1, §2

NLK = target: T6, NLK (Homo sapiens, UniProt Q9UBE8)
T6 construct: purchased Ambit Biosciences (KINOMEscan)
T6 sequence (Q9UBE8 1-527): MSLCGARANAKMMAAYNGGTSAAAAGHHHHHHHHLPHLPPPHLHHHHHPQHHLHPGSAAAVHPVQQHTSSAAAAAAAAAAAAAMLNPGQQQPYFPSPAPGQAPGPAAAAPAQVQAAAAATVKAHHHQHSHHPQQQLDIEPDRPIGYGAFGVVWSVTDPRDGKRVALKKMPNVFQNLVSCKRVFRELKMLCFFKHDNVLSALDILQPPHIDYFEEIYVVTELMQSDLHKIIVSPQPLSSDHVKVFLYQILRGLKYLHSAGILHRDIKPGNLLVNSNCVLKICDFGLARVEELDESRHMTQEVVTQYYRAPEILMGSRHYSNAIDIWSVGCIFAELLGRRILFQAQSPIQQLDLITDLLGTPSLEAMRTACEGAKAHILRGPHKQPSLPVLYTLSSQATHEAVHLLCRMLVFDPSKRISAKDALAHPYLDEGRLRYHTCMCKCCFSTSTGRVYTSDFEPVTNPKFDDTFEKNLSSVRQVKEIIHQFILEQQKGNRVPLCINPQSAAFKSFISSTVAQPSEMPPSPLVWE
Method: as §1, §2

FRK = target: T7, FRK (Homo sapiens, UniProt P42685)
T7 construct: purchased Ambit Biosciences (KINOMEscan)
Method: as §1, §2

CAMKIIγ = target: T8, CAMKIIγ (Homo sapiens, UniProt Q13555); conditions: for competition: CAMKIIγ, 10 µM
T8 construct: purchased Ambit Biosciences (KINOMEscan)
Method: as §1, §2

EGFR = target: T9, EGFR (Homo sapiens, UniProt P00533); conditions: for % Competition: 10 µM
T9 construct: purchased Ambit Biosciences (KINOMEscan)
Method: as §1, §2

MUSK = target: T10, MUSK (Homo sapiens, UniProt O15146)
T10 construct: purchased Ambit Biosciences (KINOMEscan)
T10 sequence (O15146 24-869): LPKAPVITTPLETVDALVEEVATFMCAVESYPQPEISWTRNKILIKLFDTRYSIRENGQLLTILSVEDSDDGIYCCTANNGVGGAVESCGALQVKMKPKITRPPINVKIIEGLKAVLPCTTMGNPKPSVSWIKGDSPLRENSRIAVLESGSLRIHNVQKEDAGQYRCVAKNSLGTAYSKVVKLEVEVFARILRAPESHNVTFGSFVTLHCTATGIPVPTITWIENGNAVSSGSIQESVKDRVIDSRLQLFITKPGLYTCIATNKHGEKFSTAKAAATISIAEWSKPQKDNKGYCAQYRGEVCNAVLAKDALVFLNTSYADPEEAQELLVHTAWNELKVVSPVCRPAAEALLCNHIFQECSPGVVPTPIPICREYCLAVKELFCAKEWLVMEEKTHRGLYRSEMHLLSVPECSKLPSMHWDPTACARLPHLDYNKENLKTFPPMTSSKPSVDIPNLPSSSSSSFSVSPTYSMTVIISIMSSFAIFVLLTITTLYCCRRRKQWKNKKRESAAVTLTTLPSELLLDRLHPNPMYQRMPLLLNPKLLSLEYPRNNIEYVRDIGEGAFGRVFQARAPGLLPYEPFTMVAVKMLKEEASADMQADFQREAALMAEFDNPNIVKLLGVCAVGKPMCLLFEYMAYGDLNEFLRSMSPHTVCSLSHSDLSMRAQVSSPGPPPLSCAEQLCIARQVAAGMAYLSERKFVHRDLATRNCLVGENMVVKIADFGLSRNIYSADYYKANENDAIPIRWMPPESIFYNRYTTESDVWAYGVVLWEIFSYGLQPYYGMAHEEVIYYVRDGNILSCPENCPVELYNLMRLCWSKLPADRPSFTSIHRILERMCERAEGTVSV
Method: as §1, §2

CIT = target: T11, CIT (Homo sapiens, UniProt O14578); conditions: for % Competition: 10 µM
T11 construct: purchased Ambit Biosciences (KINOMEscan)
Method: as §1, §2

CAMKIγ = target: T12, CAMKIγ (Homo sapiens, UniProt Q96NX5); conditions: for competition: CAMKIγ, 10 µM
T12 construct: purchased Ambit Biosciences (KINOMEscan)
Method: as §1, §2

EGFR(L747-T751del,Sins) = tested on: EGFR(L747-T751del,Sins); parameters: species or system human; conditions: for % Competition: 10 µM
Method: as §1, §2

T8 sequence (Q13555 whole entry): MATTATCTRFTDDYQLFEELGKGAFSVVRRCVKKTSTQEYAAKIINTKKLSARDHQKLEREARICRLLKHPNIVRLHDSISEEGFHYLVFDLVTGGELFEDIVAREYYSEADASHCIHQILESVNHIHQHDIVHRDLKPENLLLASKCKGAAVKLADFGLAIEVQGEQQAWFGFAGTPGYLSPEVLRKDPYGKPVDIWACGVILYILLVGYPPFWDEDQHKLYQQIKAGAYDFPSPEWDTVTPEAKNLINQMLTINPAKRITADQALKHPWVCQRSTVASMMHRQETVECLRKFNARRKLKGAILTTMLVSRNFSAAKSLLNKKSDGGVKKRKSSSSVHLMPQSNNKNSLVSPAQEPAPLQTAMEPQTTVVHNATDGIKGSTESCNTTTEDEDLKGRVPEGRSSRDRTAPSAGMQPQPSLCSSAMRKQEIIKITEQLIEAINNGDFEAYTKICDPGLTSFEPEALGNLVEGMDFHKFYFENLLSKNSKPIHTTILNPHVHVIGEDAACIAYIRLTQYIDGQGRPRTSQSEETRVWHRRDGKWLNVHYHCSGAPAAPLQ
T3 sequence (P37173 23-567): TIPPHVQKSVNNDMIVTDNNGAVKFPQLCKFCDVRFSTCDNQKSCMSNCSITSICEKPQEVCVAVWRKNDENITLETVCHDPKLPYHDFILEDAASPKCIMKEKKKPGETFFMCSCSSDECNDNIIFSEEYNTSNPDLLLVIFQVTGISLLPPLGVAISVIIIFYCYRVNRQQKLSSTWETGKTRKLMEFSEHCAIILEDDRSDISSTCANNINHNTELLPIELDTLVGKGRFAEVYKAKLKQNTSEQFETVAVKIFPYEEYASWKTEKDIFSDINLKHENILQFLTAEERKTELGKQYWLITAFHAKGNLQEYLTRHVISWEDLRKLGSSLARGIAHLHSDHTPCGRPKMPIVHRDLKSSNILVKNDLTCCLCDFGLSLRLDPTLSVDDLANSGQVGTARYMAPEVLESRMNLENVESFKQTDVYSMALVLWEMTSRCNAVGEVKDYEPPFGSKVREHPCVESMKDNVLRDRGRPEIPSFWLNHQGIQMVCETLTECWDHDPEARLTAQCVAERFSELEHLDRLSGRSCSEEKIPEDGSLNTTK
T12 sequence (Q96NX5 whole entry): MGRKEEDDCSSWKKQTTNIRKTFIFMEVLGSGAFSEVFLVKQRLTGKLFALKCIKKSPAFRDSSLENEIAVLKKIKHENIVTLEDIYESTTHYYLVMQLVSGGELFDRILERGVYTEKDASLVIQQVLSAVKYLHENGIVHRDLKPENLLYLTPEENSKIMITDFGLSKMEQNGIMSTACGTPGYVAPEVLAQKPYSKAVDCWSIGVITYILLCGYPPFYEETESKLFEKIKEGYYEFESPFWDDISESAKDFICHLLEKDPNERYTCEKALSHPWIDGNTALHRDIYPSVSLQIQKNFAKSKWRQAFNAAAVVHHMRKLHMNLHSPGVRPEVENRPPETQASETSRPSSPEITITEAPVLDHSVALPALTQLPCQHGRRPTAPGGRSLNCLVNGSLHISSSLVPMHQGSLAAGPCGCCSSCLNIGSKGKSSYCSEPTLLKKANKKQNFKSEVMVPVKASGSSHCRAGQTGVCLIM
T7 sequence (P42685 whole entry): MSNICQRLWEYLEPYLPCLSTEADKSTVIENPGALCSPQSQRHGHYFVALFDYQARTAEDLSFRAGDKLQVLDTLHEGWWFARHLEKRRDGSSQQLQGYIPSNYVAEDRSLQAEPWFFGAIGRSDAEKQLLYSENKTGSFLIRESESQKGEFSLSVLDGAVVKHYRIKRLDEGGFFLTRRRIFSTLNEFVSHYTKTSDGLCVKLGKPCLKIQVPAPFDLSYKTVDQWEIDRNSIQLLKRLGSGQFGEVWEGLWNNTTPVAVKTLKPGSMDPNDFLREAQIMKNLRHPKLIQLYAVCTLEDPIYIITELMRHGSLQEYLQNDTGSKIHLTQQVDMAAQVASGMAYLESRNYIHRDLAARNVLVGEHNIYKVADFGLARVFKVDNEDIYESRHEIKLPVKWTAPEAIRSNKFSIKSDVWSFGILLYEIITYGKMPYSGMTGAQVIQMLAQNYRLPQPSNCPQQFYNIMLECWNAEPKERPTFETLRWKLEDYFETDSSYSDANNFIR
T1 sequence (P06239 whole entry): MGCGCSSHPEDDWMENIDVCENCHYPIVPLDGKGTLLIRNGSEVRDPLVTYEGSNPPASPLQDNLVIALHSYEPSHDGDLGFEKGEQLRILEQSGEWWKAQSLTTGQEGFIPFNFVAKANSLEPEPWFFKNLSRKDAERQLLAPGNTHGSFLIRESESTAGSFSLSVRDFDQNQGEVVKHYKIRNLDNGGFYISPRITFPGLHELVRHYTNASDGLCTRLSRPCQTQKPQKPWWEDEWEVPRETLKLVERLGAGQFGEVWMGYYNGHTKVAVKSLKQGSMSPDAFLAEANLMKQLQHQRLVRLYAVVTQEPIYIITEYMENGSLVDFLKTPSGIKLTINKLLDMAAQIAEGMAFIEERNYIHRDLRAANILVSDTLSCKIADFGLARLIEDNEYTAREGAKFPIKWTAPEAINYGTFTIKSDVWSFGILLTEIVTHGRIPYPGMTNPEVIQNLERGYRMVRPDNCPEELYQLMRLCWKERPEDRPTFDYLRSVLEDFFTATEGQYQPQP
T11 sequence (O14578 whole entry): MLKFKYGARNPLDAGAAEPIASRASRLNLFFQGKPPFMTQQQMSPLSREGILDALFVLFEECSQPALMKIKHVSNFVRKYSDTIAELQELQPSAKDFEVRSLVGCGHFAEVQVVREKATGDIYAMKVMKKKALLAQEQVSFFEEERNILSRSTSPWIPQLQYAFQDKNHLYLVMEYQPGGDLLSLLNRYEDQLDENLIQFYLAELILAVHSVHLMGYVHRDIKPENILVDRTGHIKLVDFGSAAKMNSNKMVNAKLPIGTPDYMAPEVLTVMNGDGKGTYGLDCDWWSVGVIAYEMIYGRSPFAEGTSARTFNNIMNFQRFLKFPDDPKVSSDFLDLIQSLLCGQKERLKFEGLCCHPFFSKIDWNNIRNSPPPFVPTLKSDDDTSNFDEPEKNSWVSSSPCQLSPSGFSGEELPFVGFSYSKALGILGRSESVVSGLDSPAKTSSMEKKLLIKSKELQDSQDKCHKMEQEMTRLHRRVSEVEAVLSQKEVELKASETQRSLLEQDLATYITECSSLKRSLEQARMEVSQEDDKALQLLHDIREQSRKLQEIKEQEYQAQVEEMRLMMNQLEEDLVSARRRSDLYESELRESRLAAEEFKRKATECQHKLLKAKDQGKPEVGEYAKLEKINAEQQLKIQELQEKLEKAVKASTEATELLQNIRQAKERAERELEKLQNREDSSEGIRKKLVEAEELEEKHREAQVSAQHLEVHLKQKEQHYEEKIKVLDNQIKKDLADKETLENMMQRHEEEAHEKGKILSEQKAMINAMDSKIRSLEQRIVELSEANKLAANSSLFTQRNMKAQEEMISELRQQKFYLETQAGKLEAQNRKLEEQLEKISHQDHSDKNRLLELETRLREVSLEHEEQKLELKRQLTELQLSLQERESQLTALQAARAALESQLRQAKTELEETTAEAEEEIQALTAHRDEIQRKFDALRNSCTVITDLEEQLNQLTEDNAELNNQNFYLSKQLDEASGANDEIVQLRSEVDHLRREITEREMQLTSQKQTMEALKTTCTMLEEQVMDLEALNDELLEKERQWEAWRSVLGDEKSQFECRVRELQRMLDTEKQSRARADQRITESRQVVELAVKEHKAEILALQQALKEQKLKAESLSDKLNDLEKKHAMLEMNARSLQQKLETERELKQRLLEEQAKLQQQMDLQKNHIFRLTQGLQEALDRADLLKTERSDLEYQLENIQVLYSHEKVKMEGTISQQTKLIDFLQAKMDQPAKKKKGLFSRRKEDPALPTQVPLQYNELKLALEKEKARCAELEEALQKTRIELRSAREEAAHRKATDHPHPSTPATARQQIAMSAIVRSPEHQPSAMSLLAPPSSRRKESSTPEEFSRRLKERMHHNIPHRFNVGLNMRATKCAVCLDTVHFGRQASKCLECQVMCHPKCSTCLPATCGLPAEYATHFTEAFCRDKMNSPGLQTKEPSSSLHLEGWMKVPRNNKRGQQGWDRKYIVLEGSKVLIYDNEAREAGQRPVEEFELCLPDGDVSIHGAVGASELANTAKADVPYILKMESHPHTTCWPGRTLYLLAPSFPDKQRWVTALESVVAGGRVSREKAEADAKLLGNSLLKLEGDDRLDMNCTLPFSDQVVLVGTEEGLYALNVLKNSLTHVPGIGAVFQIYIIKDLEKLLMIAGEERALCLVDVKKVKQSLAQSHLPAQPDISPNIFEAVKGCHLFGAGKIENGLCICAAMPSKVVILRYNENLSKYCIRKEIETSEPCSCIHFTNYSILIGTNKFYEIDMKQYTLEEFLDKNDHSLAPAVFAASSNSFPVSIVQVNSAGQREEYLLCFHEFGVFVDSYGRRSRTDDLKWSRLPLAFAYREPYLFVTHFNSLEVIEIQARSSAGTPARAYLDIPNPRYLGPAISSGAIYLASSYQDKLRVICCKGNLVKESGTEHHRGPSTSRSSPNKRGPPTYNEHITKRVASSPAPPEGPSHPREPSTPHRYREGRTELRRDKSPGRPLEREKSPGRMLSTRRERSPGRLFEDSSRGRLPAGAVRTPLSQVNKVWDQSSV
T5 sequence (P49674 whole entry): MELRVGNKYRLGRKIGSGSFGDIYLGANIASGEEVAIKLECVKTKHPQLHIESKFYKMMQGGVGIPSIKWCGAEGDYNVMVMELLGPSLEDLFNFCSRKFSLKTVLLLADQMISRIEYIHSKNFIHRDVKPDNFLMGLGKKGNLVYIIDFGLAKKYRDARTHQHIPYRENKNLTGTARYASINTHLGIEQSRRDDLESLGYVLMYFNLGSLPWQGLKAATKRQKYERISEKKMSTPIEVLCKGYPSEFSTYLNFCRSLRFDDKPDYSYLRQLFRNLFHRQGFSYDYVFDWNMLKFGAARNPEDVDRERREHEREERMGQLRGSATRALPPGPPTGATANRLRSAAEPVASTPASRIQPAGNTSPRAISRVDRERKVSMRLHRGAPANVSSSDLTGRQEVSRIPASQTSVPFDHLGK

inhibition at 10 µM (LCK; LCK, 10 µM, read-out: % Competition): 71%
% Competition (p38-alpha): 100%
inhibition at 10 µM (TGFBR2; TGFBR2, 10 µM, read-out: % Competition): 98%
% Competition (EGFR(G719S)): 96%
inhibition at 10 µM (CSNK1E; CSNK1E, 10 µM, read-out: % Competition): 100%
inhibition at 10 µM (NLK; NLK, 10 µM, read-out: % Competition): 98%
inhibition at 10 µM (FRK; FRK, 10 µM, read-out: % Competition): 85%
competition (CAMKIIγ): < 50%
% Competition (EGFR): 95%
inhibition at 10 µM (MUSK; MUSK, 10 µM, read-out: % Competition): 94%
% Competition (CIT): 99%
competition (CAMKIγ): < 50%
% Competition (EGFR(L747-T751del,Sins)): 97%
SMILES: Fc1ccc(-c2c(-c3ccncc3)[nH]c3nccnc23)cc1 [Compound 122]

SMILES: CC(O)CNc1cc(-c2[nH]c3cccnc3c2-c2ccc(F)cc2)ccn1 (stereo not drawn) [Compound 140]
inhibition at 10 µM (LCK; read-out: % Competition): < 50%
% Competition (p38-alpha): 100%
inhibition at 10 µM (TGFBR2; read-out: % Competition): < 50%
% Competition (EGFR(G719S)): 70%
inhibition at 10 µM (CSNK1E; read-out: % Competition, CSNK1E, 10 µM): 99 to 100%
inhibition at 10 µM (NLK; read-out: % Competition): 91%
inhibition at 10 µM (FRK; read-out: % Competition): < 50%
competition (CAMKIIγ): < 50%
% Competition (EGFR): 76%
inhibition at 10 µM (MUSK; read-out: % Competition): < 50%
% Competition (CIT): 99%
competition (CAMKIγ): < 50%
% Competition (EGFR(L747-T751del,Sins)): 90%

inhibition at 10 µM (LCK; LCK, compound concentration 10 uM, read-out: Percent Competition): 71%
Percent Competition (p38-alpha; compound concentration 10 uM): 100%
inhibition at 10 µM (TGFBR2; TGFBR2, compound concentration 10 uM, read-out: Percent Competition): 98%
Percent Competition (EGFR(G719S); compound concentration 10 uM): 96%
inhibition at 10 µM (CSNK1E; CSNK1E, compound concentration 10 uM, read-out: Percent Competition): 100%
inhibition at 10 µM (NLK; NLK, compound concentration 10 uM, read-out: Percent Competition): 98%
inhibition at 10 µM (FRK; FRK, compound concentration 10 uM, read-out: Percent Competition): 85%
inhibition at 10 µM (CAMKIIγ; CAMK2G, compound concentration 10 uM, read-out: Percent Competition): < 50%
Percent Competition (EGFR; compound concentration 10 uM): 95%
inhibition at 10 µM (MUSK; MUSK, compound concentration 10 uM, read-out: Percent Competition): 94%
Percent Competition (CIT; compound concentration 10 uM): 99%
inhibition at 10 µM (CAMKIγ; CAMK1G, compound concentration 10 uM, read-out: Percent Competition): < 50%
Percent Competition (EGFR(L747-T751del,Sins); compound concentration 10 uM): 97%
SMILES: Fc1ccc(-c2c(-c3ccncc3)[nH]c3nccnc23)cc1 [RO1155697-000-005]
